These are literature values, as cited in patent US7390503B1, “Ondansetron orally disintegrating tablets” (Barr Laboratories, Inc., priority 2003, dated 2008).

Counter-ions that a name gives are not always drawn. Like-named read-outs stand apart in the source and are kept apart here.

The conditions of the data set: general statement, no test described.

With `Cc1nccn1CC1CCc2c(c3ccccc3n2C)C1=O` (centres unmarked) [Ondansetron hydrochloride dihydrate], the solubility in water result (hydrochloride dihydrate) is recorded as “freely soluble in water”. As to `Cc1nccn1CC1CCc2c(c3ccccc3n2C)C1=O` (centres unmarked) [ondansetron in free base form, 1,2,3,9-tetrahydro-9-methyl-3-[(2-methyl-1H-imidazol-1-yl)methyl]-4H-carbazol-4-one], the solubility in water entry is reported as “soluble in water”.
